Laboratory results reported in the NIST ThermoML archive (doi:10.1016/j.jct.2016.10.033).
± gives the expanded uncertainty stated by the source.

Assay: refractive index (Na D-line) (dimensionless); xn = mol fraction of the nth substance listed
Conditions: 103 kPa, Liquid, Standard Abbe refractometry

CCO[Si](C)(C)OCC [dimethyldiethoxysilane] + CO[Si](C)(OC)c1ccccc1
refractive index
Conditions	298.15 K	303.15 K	308.15 K	313.15 K	318.15 K
x2 = 0	1.38045 ± 0.004	1.37791 ± 0.004	1.37532 ± 0.004	1.37275 ± 0.004	1.37015 ± 0.004
x2 = 0.05	1.38569 ± 0.004	1.38315 ± 0.004	1.38057 ± 0.004	1.37799 ± 0.004	1.37541 ± 0.004
x2 = 0.1001	1.39089 ± 0.004	1.38836 ± 0.004	1.38582 ± 0.004	1.38325 ± 0.004	1.38071 ± 0.004
x2 = 0.1499	1.39601 ± 0.004	1.39351 ± 0.004	1.39097 ± 0.004	1.38844 ± 0.004	1.38592 ± 0.004
x2 = 0.2002	1.40114 ± 0.004	1.39865 ± 0.004	1.39614 ± 0.004	1.39362 ± 0.004	1.39108 ± 0.004
x2 = 0.2501	1.40622 ± 0.004	1.40372 ± 0.004	1.40124 ± 0.004	1.39874 ± 0.004	1.39625 ± 0.004
x2 = 0.3001	1.41123 ± 0.004	1.40874 ± 0.004	1.40626 ± 0.004	1.40376 ± 0.004	1.40129 ± 0.004
x2 = 0.3499	1.41623 ± 0.004	1.41376 ± 0.004	1.41131 ± 0.004	1.40883 ± 0.004	1.4064 ± 0.004
x2 = 0.4	1.42117 ± 0.004	1.41873 ± 0.004	1.41626 ± 0.004	1.41378 ± 0.004	1.41133 ± 0.004
x2 = 0.4499	1.42609 ± 0.004	1.42366 ± 0.004	1.42126 ± 0.004	1.41881 ± 0.004	1.41639 ± 0.004
x2 = 0.5	1.43096 ± 0.004	1.42854 ± 0.004	1.42613 ± 0.004	1.42369 ± 0.004	1.42133 ± 0.004
x2 = 0.55	1.43582 ± 0.004	1.4334 ± 0.004	1.43098 ± 0.004	1.42856 ± 0.004	1.42618 ± 0.004
x2 = 0.5999	1.44058 ± 0.004	1.43819 ± 0.004	1.43579 ± 0.004	1.43336 ± 0.004	1.43098 ± 0.004
x2 = 0.65	1.44535 ± 0.004	1.44296 ± 0.004	1.44058 ± 0.004	1.43819 ± 0.004	1.43582 ± 0.004
x2 = 0.6999	1.45008 ± 0.004	1.4477 ± 0.004	1.44531 ± 0.004	1.4429 ± 0.004	1.44055 ± 0.004
x2 = 0.75	1.45489 ± 0.004	1.45239 ± 0.004	1.45002 ± 0.004	1.44764 ± 0.004	1.44527 ± 0.004
x2 = 0.8	1.4594 ± 0.004	1.45703 ± 0.004	1.45464 ± 0.004	1.45227 ± 0.004	1.44991 ± 0.004
x2 = 0.8498	1.464 ± 0.004	1.46165 ± 0.004	1.45929 ± 0.004	1.45692 ± 0.004	1.45455 ± 0.004
x2 = 0.9	1.46859 ± 0.004	1.46623 ± 0.004	1.46388 ± 0.004	1.46153 ± 0.004	1.45918 ± 0.004
x2 = 0.95	1.47312 ± 0.004	1.47078 ± 0.004	1.46843 ± 0.004	1.46607 ± 0.004	1.46372 ± 0.004
